The target of one assay is T1, hGHR (Homo sapiens, UniProt P10912).
T1 construct: previously reported to express high levels of endogenous hGHR; host or cells: SK-MEL-28, MALME-3M, IM9
T1 sequence (P10912 19-638): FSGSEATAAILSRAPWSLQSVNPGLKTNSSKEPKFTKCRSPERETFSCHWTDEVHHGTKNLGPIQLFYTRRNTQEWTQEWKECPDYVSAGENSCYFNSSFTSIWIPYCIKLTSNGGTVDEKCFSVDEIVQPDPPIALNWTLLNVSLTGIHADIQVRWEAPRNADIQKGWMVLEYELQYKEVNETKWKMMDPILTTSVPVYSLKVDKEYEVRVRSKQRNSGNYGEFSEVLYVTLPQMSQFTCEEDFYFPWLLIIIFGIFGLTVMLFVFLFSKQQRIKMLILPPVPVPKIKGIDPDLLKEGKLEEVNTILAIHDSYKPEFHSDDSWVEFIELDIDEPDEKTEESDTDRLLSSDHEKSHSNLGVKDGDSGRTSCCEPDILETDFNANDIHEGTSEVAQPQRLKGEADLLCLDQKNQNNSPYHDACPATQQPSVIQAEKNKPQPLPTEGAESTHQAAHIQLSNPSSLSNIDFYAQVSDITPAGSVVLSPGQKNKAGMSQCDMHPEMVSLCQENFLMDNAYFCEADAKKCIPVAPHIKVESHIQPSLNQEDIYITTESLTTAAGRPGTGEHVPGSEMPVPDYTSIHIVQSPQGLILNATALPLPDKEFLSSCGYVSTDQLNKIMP
Nature of the assay: hGH-mediated pSTAT5 in SK-MEL-28 cells, Western blot. Conditions: 20 min, Western blot densitometry, n = 3. The format is cell-based. As for the experimental part: (§1) SK-MEL-28, MALME-3M, and T84 cells were grown and maintained in Eagle's Minimal Essential Medium. IM9 and L cells were grown in RPMI-1640 media and Dulbecco's modified Eagle's medium, respectively. All growth media was supplemented with 10% fetal bovine serum and 1× antibiotic-antimycotic […] solution. Cells were grown at 37 °C under a 5% CO2 atmosphere in a humidified incubator, and growth media was replaced every 48 h during incubation. No hGH was present in or added to the growth media unless specifically indicated. […]
(§2) Following treatment, the cells were harvested at the indicated time points, and the total protein was extracted. […] Sample protein concentration was quantified using a Bradford assay with bovine serum albumin as the protein standard. Absorbance at 595 nm was measured using a Spectramax 250 multimode plate reader (Molecular Devices) and processed using SoftmaxPro v4.7.1 software.
(§3) Cytosolic fractions from treated cells were thawed on ice, and 80 μg protein was loaded onto polyacrylamide gels for separation by SDS-PAGE. […] Chemiluminescence signals were detected using a GelDoc (BioRad) fluorescence imager. […] Percent inhibition was then measured by subtracting the pSTAT5 band intensity in each lane from the pSTAT5 band intensity of hGH-treated samples. […]
In general terms: Immunoblotting shows a protein as a band on a membrane.

A further assay concerns the target T2, mouse GHR (Mus musculus, UniProt P16882).
T2 construct: the mouse L fibroblasts express high levels of mouse GHR; host or cells: mouse L fibroblasts
T2 sequence (P16882 25-650): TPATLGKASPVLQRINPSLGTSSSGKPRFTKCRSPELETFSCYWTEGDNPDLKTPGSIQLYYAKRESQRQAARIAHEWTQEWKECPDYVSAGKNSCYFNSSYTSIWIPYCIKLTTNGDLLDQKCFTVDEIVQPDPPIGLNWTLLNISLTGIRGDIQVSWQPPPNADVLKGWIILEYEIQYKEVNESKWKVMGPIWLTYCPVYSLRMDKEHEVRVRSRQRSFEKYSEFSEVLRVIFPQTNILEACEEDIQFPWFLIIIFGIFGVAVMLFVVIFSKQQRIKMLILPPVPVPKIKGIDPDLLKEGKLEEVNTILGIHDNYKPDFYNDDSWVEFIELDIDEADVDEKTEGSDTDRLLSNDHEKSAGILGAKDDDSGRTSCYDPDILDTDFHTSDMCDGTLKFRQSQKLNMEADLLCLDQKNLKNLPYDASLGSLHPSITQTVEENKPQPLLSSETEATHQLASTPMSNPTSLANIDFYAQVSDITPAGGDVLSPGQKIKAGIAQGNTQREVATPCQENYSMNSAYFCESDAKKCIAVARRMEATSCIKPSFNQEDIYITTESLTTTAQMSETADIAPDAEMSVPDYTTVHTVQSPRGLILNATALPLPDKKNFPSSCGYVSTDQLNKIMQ
As to the kind of experiment: hGH-mediated pSTAT5 in L (mouse fibroblast) cells, Western blot. The format is cell-based. Conditions: 200 nM S1H with 2.5 nM hGH, 20 min, Western blot densitometry, n = 3. As to the method:
as §1, §2, §3

Consider `CC[C@H](C)[C@H](NC(=O)[C@H](Cc1ccc(O)cc1)NC(C)=O)C(=O)N1CCC[C@H]1C(=O)N[C@@H](CCCCN)C(=O)N[C@@H](CCC(=O)O)C(=O)N[C@@H](CCC(N)=O)C(=O)N[C@@H](CCCCN)C(=O)N[C@@H](Cc1ccc(O)cc1)C(=O)N[C@@H](CO)C(=O)N[C@@H](Cc1ccccc1)C(=O)N[C@@H](CC(C)C)C(=O)N[C@@H](CCC(N)=O)C(=O)N[C@@H](CC(N)=O)C(=O)N1CCC[C@H]1C(=O)N[C@@H](CCC(N)=O)C(=O)N[C@H](C(N)=O)[C@@H](C)O` [S1H], for which the “suppression of hGH-mediated pSTAT5” value was determined as 46% on hGHR (100 nM S1H with 2.5 nM hGH), 67% on hGHR (200 nM S1H with 2.5 nM hGH) and 36% on mouse GHR.

For the origin of these results see PMC8086144, “A novel peptide antagonist of the human growth hormone receptor” (The Journal of Biological Chemistry, 2021).
